Source: US8183236B2, “Compounds with HIV-1 integrase inhibitory activity and use thereof as anti-HIV/AIDS therapeutics” (University of Southern California, priority 2007, dated 2012)

Tests used:
[1] = biological target: T1, HIV-1 integrase (wild-type IN) (Human immunodeficiency virus type 1 group M subtype B, UniProt P12497); test: HIV-1 integrase 3′-processing assay (32P-labeled 21-mer, gel); format: biochemical
Summary of the method: (§1)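 Wild-type IN at 200 nM preincubated with inhibitor 30 min at 30 °C in MnCl2 (7.5 mM), pH 7.2 MOPS buffer with 10% DMSO, then 20 nM 5′-32P-labeled 21-mer duplex added for 1 h. 19-mer and strand-transfer products resolved on denaturing 20% gels by phosphorimaging; IC50 from log concentration versus % inhibition.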

[2] = biological target: T1, HIV-1 integrase (wild-type IN); test: HIV-1 integrase strand transfer assay (32P-labeled 21-mer, gel); format: biochemical
Summary of the method: as §1

[3] = unit inferred, read-out: IN inhibition activity 3′-processing
[4] = unit inferred, read-out: IN inhibition activity Strand transfer
[5] = wild-type IN 200 nM, 7.5 mM MnCl2, read-out: Inhibition of IN Catalytic Activities IC50 (μM) 3′-processing
[6] = wild-type IN 200 nM, 7.5 mM MnCl2, read-out: Inhibition of IN Catalytic Activities IC50 (μM) Strand Transfer
[7] = unit inferred, read-out: HIV-1 IN Inhibitory Activities 3′-processing
[8] = unit inferred, read-out: HIV-1 IN Inhibitory Activities Strand transfer

SMILES	IC50 [1, 5] [µM]	IC50 [2, 6] [µM]	other results
COc1ccc(-c2nnc(SCC(=O)N/N=C/c3ccccc3C(=O)O)n2-c2ccccc2)cc1OC [GLD38]	–	–	IC50 [1, 3]: > 100 µM; IC50 [2, 4]: > 100 µM
O=C(CSc1nnc(-c2ccc(Cl)cc2)n1-c1ccccc1)N/N=C/c1ccccc1C(=O)O [GLD39]	–	–	IC50 [1, 3]: > 100 µM; IC50 [2, 4]: > 100 µM
Nc1c(C(=O)Nc2ccc(Cl)c(Cl)c2)sc2[nH]c(=O)c(C(=O)O)cc12 [GLD44]	–	–	IC50 [1, 3]: 14 ± 6 µM; IC50 [2, 4]: 5 ± 4 µM
COc1cccc(NC(=O)c2sc3[nH]c(=O)c(C(=O)O)cc3c2N)c1 [GLD45]	–	–	IC50 [1, 3]: 82 ± 13 µM; IC50 [2, 4]: 43 ± 12 µM
Cc1ccc(C(=O)O)cc1NC(=O)CSc1nc2ccccc2s1 [GLD59]	–	–	IC50 ([1]; Table 53, structurally diverse compounds, read-out: IN inhibition activity 3′-processing): 63 ± 22 µM; IC50 ([2]; Table 53, structurally diverse compounds, read-out: IN inhibition activity Strand transfer): 17 ± 2 µM
CSc1ccc(/C=N/NC(=O)CSc2nnc(-c3ccc(Cl)cc3)n2-c2ccccc2)cc1 [HD39]	–	–	IC50 [1, 3]: > 100 µM; IC50 [2, 4]: > 100 µM
O=C(Nc1ncccc1O)c1c(O)c2cccc3c2n(c1=O)CCC3 [LM11]	56	15	–
COc1ccc(-c2nnc(SCC(=O)N/N=C/c3cccc(Oc4ccccc4)c3)n2-c2ccccc2)cc1OC [LX6]	–	–	IC50 [1, 3]: > 100 µM; IC50 [2, 4]: > 100 µM
O=C(CSc1nnc(-c2ccc(Cl)cc2)n1-c1ccccc1)N/N=C/c1cccc(Oc2ccccc2)c1 [LX7]	–	–	IC50 [1, 3]: > 100 µM; IC50 [2, 4]: > 100 µM
COc1ccc(O)c(/C=N/NC(=O)CSc2nnc(-c3ccncc3)n2-c2ccccc2)c1 [MC41]	–	–	IC50 [1, 3]: > 100 µM; IC50 [2, 4]: > 100 µM
COc1ccc(C2C(C(=O)c3ccco3)=C(O)C(=O)N2CCN2CCOCC2)c(OC)c1 (stereo not shown) [MMC8]	–	–	IC50 [1, 7]: > 1000 µM; IC50 [2, 8]: 395 µM
CCOc1ccc2c(c1)C(=C1SC(C(=O)OC)=C(C(=O)OC)S1)C(=S)C(C)(C)N2C(=O)c1ccccc1F [OT2]	> 100	95 ± 9	–
COc1cc(/C=C2/SC(=S)N(CC(=O)O)C2=O)ccc1OCc1ccccc1 [OT3]	> 100	92 ± 7	–
COc1cc(/C=C2/SC(=S)N(CC(=O)O)C2=O)ccc1OCc1ccccc1Cl [OT4]	48 ± 7	22 ± 4	–
COc1ccc(/C=C2/SC(=S)N(CC(=O)O)C2=O)cc1OCc1ccccc1 [OT5]	> 100	54 ± 17	–
COc1ccc(/C=C2/SC(=S)N(CC(=O)O)C2=O)cc1CCc1ccc(Cl)cc1Cl [OT6]	17 ± 4	13 ± 7	–

SMILES	IC50 [1, 5] [µM]	IC50 [2, 6] [µM]	other results
O=C(N/N=C/c1ccc(-c2ccc(Cl)c(Cl)c2)o1)c1ccccc1O [OT8]	31 ± 16	14 ± 4	–
COc1cc(/C=C2/SC(=S)N(CC(=O)O)C2=O)ccc1OC(=O)c1ccc(F)cc1 [OT9]	> 100	97 ± 5	–
COc1ccc(/C=N/NC(=O)CSc2nnc(-c3ccccc3)n2-c2ccccc2)c(C(=O)O)c1OC [OT10]	–	–	IC50 [1, 3]: > 100 µM; IC50 [2, 4]: > 100 µM
COc1cc(/C=C2/SC(=S)N(CCC(=O)O)C2=O)ccc1OC(=O)c1ccccc1 [OT17]	42 ± 20	27 ± 11	–
Cc1ccc(S(=O)(=O)N(CC(=O)Nc2ccccc2C(=O)O)c2cccc(Cl)c2)cc1 [OT24]	98 ± 5	71 ± 23	–
CCOc1ccc(N(CC(=O)Nc2ccccc2C(=O)O)S(=O)(=O)c2ccc(Cl)cc2)cc1 [OT27]	69 ± 15	47 ± 22	–
CCCc1cc2c(-c3ccccc3)cc(=O)oc2cc1OCc1ccc(C(=O)O)o1 [OT32]	72 ± 8	57 ± 22	–
N#Cc1c(-c2ccc(F)cc2)cc(C2CC2)nc1SCCN1C(=O)c2ccccc2C1=O [OT33]	> 100	95 ± 11	–
COCCN1C(=O)/C(=C\c2ccc(OCc3ccc(C(=O)O)cc3)c(OC)c2)SC1=S [OT35]	41 ± 11	38 ± 16	–
COc1ccc(/C=C2/SC(=S)N(CC(=O)O)C2=O)cc1OCc1ccccc1F [OT37]	> 100	79 ± 8	–
O=C(CSc1nc2scc(-c3ccco3)c2c(=O)n1-c1ccccc1)NCc1ccco1 [OT51]	36 ± 29	14 ± 4	–
O=C(Nc1cc(C(=O)Nc2ccccc2C(=O)O)cc(C(=O)Nc2ccccc2C(=O)O)c1)c1ccccc1 [ROM1]	–	–	IC50 [1, 7]: 78 µM; IC50 [2, 8]: 20 µM
CCn1cc(C(=O)O)c(=O)c2cc(F)c(NNC(=O)C3CCCCC3)cc21 [ROM3A1]	> 100	> 100	–
CCn1cc(C(=O)NN)c(=O)c2cc(F)c(N3CCCCCC3)cc21 [ROM3A2]	94	98	–
CCn1cc(C(=O)O)c(=O)c2cc(F)c(N3CCN(C(=O)c4cccc(C)c4)CC3)cc21 [ROM3A3]	> 100	> 100	–
CCn1cc(C(=O)O)c(=O)c2cnc(N3CCN(C(=S)NC(=O)c4ccc(F)c(F)c4)CC3)nc21 [ROM3A4]	64	59	–
